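48-hour exposure; five concentrations; linearly interpolated endpoints. TGI is the concentration that stops growth completely.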
Assays:
Test in all cases: inhibition of tumour cell growth, NCI panel, 48 h
[1] = test system: NCI-H522 lung
[2] = test system: OVCAR-4 ovarian
[3] = test system: M14 melanoma
[4] = test system: HL-60(TB) leukemia
[5] = test system: 786-0 renal
[6] = test system: K-562 leukemia
[7] = test system: NCI/ADR-RES ovarian
[8] = test system: T-47D breast
[9] = test system: MALME-3M melanoma
[10] = test system: NCI-H226 lung
[11] = test system: SK-MEL-5 melanoma
[12] = test system: UACC-257 melanoma
[13] = test system: CAKI-1 renal
[14] = test system: UO-31 renal
[15] = test system: OVCAR-8 ovarian
[16] = test system: A498 renal
[17] = test system: EKVX NSCLC
[18] = test system: PC-3 prostate
[19] = test system: HCC-2998 colon
[20] = test system: MCF7 breast
[21] = test system: NCI-H23 lung
[22] = test system: SNB-75 CNS
[23] = test system: HS 578T breast
[24] = test system: ACHN renal
[25] = test system: DU-145 prostate
[26] = test system: HCT-116 colon
[27] = test system: HOP-92 NSCLC
[28] = test system: MDA-N
[29] = test system: SR leukemia
[30] = test system: A549 NSCLC
[31] = test system: OVCAR-5 ovarian
[32] = test system: RXF 393 renal
[33] = test system: NCI-H460 lung
[34] = test system: MDA-MB-231 breast
[35] = test system: SN12C renal
[36] = test system: SF-268 CNS
[37] = test system: KM12 colon
[38] = test system: UACC-62 melanoma
[39] = test system: HT29 colon
[40] = test system: SK-MEL-28 melanoma
[41] = test system: SW-620 colon
[42] = test system: LOX IMVI melanoma
[43] = test system: SK-OV-3 ovarian
[44] = test system: COLO 205 colon
[45] = test system: MDA-MB-435
[46] = test system: RPMI-8226 leukemia
[47] = test system: IGROV1 ovarian
[48] = test system: CCRF-CEM leukemia
[49] = test system: SF-539 CNS
[50] = test system: HOP-62 NSCLC
[51] = test system: SNB-19 CNS
[52] = test system: TK-10 renal
[53] = test system: SF-295 CNS
[54] = test system: HCT-15 colon
[55] = test system: OVCAR-3 ovarian
[56] = test system: U251 CNS
[57] = test system: MOLT-4 leukemia

Measured: TGI

CCOC(=O)C(NS(=O)(=O)c1ccccc1)(C(F)(F)F)P(=O)(OCC(C)C)OCC(C)C (configuration not stated)
> 100 µM: [1] | [2] | [3] | [4] | [5] | [6] | [7] | [8] | [9] | [10] | [11] | [12] | [13] | [14] | [15] | [16] | [17] | [18] | [19] | [20] | [21] | [22] | [23] | [24] | [25] | [26] | [27] | [28] | [29] | [30] | [31] | [32] | [33] | [34] | [35] | [36] | [37] | [38] | [39] | [40] | [41] | [42] | [43] | [44] | [45] | [46] | [47] | [48] | [49] | [50] | [51] | [52] | [53] | [54] | [55] | [56] | [57]
